Assay results published in US7435837B2, “Dihydrobenzofuranyl alkanamine derivatives and methods for using same” (Wyeth, priority 2003, dated 2008).

Tests used:
[1] = target: T1, human 5-HT2C receptor (Homo sapiens, UniProt P28335); assay: 5-HT2C receptor-stimulated calcium mobilization (FLIPR) in CHO cells; format: cell-based; settings: for Emax: CHO, read-out: 5-HT2C Function Emax (%); for Emax / 5-HT2C Function Emax (%): percentage of the response observed with a maximally effective concentration of 5-HT; for EC50: calcium mobilization, CHO cells stably expressing human 5-HT2C, read-out: 5-HT2C Function EC50;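 for all read-outs here: Fluo-3-AM fluorescence read on FLIPR every 1 s, agonist added after 10 baseline reads, response taken as peak minus lowest raw fluorescence count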
T1 sequence (P28335 33-458): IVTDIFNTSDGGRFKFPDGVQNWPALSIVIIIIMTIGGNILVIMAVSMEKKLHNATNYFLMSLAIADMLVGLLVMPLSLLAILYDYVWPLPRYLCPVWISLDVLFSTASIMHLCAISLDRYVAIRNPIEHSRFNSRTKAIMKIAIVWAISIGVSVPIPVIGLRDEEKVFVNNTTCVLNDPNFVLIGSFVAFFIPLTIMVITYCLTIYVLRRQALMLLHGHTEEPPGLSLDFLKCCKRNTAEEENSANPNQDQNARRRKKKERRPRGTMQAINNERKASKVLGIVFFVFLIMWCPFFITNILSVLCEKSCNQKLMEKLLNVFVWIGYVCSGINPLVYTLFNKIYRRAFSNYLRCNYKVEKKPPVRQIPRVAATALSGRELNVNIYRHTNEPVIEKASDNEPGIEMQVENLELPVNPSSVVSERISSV

[2] = target: T2, human 5-hydroxytryptamine-2C (h5-HT2C) receptor (Homo sapiens, UniProt P28335); assay: [125I]DOI binding to membranes of CHO cells expressing the human 5-HT2C receptor; settings: [125I]DOI radioligand, CHO cell membranes, room temperature 60 min; read-out: 5-HT2C Affinity Ki
T2 construct: expressed in transfected cells; host or cells: CHO (Chinese Hamster Ovary) cells; membranes
T2 sequence (P28335 33-458): T1 sequence (P28335 33-458)

Structure (SMILES) | Emax [1] [%] | EC50 [1] [nM] | Ki [2] [nM] | 5-HT2C Function Emax (%) [1] [%]
NCC1Cc2cc(Cl)cc(-c3ccc(F)c(F)c3)c2O1 (racemic) [Example 258, (±)-{[5-chloro-7-(3,4-difluorophenyl)-2,3-dihydro-1-benzofuran-2-yl]methyl}amine] | 80 | 734 | 42 | –
COc1cccc(-c2cccc3c2OC(CN)C3)c1OC (single isomer, unassigned; (-)) [Example 156] | 90 | 6 | 4.7 | –
CNCC1Cc2cc(F)cc(-c3c(C)cccc3C)c2O1 (single isomer, unassigned; (-)) [Example 559, (−)-{[7-(2,6-dimethylphenyl)-5-fluoro-2,3-dihydro-1-benzofuran-2-yl]methyl}methylamine] | – | 7 | 0.3 | 90
Cc1cc2c(c(-c3ccc(Cl)cc3Cl)c1)OC(CN)C2 (single isomer, unassigned; (-)) [Example 298, (−)-{[7-(2,4-dichlorophenyl)-5-methyl-2,3-dihydro-1-benzofuran-2-yl]methyl}amine] | 90 | 30 | 11 | –
CNCC1Cc2cc(F)cc(-c3cc(C)ccc3C)c2O1 (racemic) [Example 452, (±)-{[7-(2,5-dimethylphenyl)-5-fluoro-2,3-dihydro-1-benzofuran-2-yl]methyl}methylamine] | 80 | 153 | 24 | –
COc1ccc(-c2cccc3c2OC(CN)C3)cc1 (single isomer, unassigned; (+)) [Example 80, (+)-1-[7-(4-methoxyphenyl)-2,3-dihydro-1-benzofuran-2-yl]methanamine] | – | 17 | 1 | 90
COc1cccc(-c2cc(Cl)cc3c2OC(CN)C3)c1OC (racemic) [Example 249, (±)-{[5-chloro-7-(2,3-dimethoxyphenyl)-2,3-dihydro 1-benzofuran-2-yl]methyl}amine] | 90 | 21 | 4 | –
Cc1ccccc1-c1cc(F)cc2c1OC(CN)C2 (single isomer, unassigned; (+)) [Example 105, (+)-1-[5-fluoro-7-(2-methylphenyl)-2,3-dihydro-1-benzofuran-2-yl]methanamine] | – | 4 | 1 | 95
CNCC1Cc2cccc(-c3cc(Cl)ccc3Cl)c2O1 (racemic) [Example 429, (±)-[(N-methyl-1-[7-(2,5-dichlorophenyl)-2,3-dihydro-1-benzofuran-2-yl]methanamine] | 92 | 16 | 2.8 | –
CNCC1Cc2cccc(-c3c(Cl)cccc3Cl)c2O1 (single isomer, unassigned; (-)) [Example 434, (−)-{[7-(2,6-dichlorophenyl)-2,3-dihydro-1-benzofuran-2-yl]methyl}methylamine] | 90 | 7 | 0.03 | –
Cc1ccccc1-c1cc(C(F)(F)F)cc2c1OC(CN)C2 (racemic) [Example 314, (±)-{[5-(trifluoromethyl)-7-(2-methylphenyl)-2,3-dihydro-1-benzofuran-2-yl]methyl}amine] | 90 | 42 | 18 | –
Cc1cccc(-c2cc(Cl)cc3c2OC(CN)C3)c1C (racemic) [Example 248, (±)-{[5-chloro-7-(2,3-dimethylphenyl)-2,3-dihydro-1-benzofuran-2-yl]methyl}amine] | 80 | 225 | 9 | –
NCC1Cc2cccc(-c3ccc(F)cc3F)c2O1 (single isomer, unassigned; (+)) [Example 147, (+)-1-[7-(2,4-difluorophenyl)-2,3-dihydro-1-benzofuran-2-yl]methanamine] | 90 | 7 | 1.3 | –
COc1ccccc1-c1cccc2c1OC(CN)C2 (racemic) [Example 59, (±)-1-[7-(2-methoxyphenyl)-2,3-dihydro-1-benzofuran-2-yl]methanamine] | 100 | 127 | 2 | –
COc1cc2c(c(-c3cc(Cl)ccc3Cl)c1)OC(CN)C2 (single isomer, unassigned; (+)) [Example 368, (+)-{[7-(2,5-dichlorophenyl)-5-methoxy-2,3-dihydro-1-benzofuran-2-yl]methyl}amine] | 90 | 4 | 1.4 | –
CNCC1Cc2cc(C)cc(-c3ccc(Cl)cc3)c2O1 (racemic) [Example 481, (±)-{[7-(4-chlorophenyl)-5-methyl-2,3-dihydro-1-benzofuran-2-yl]methyl}methylamine] | 80 | 75 | 1.5 | –

Structure (SMILES) | Emax [1] [%] | EC50 [1] [nM] | Ki [2] [nM] | 5-HT2C Function Emax (%) [1] [%]
NCC1Cc2cc(F)cc(-c3ccccc3Cl)c2O1 (single isomer, unassigned; (+)) [Example 101, (+)-1-[7-(2-chlorophenyl)-5-fluoro-2,3-dihydro-1-benzofuran-2-yl]methanamine] | – | 0.32 | 0.2 | 100
COc1cc2c(c(-c3cc(Cl)ccc3Cl)c1)OC(CN)C2 (racemic) [Example 367, (±)-{[7-(2,5-dichlorophenyl)-5-methoxy-2,3-dihydro-1-benzofuran-2-yl]methyl}amine] | 100 | 3 | 0.21 | –
COc1cc2c(c(-c3ccc(F)cc3F)c1)OC(CN)C2 (racemic) [Example 364, (±)-{[7-(2,4-difluorophenyl)-5-methoxy-2,3-dihydro-1-benzofuran-2-yl]methyl}amine] | 85 | 62 | 0.9 | –
CNCC1Cc2cc(OC)cc(-c3cccc(Cl)c3Cl)c2O1 (racemic) [Example 495, (±)-{[7-(2,3-dichlorophenyl)-5-methoxy-2,3-dihydro-1-benzofuran-2-yl]methyl}methylamine] | 60 | 338 | 41 | –
CNCC1Cc2cccc(-c3ccccc3OC)c2O1 (racemic) [Example 413, (±)-[(N-methyl-1-[7-(2-methoxyphenyl)-2,3-dihydro-1-benzofuran-2-yl]methanamine] | 90 | 8 | 21 | –
Cc1ccccc1-c1c(F)ccc2c1OC(CN)C2 (racemic) [Example 395, (±)-{[6-fluoro-7-(2-methylphenyl)-2,3-dihydro-1-benzofuran-2-yl]methyl}amine] | 90 | 0.4 | 0.3 | –
CNCC1Cc2cc(OC)cc(-c3cc(Cl)ccc3Cl)c2O1 (racemic) [Example 499, (±)-{[7-(2,5-dichlorophenyl)-5-methoxy-2,3-dihydro-1-benzofuran-2-yl]methyl}methylamine] | 90 | 57 | 3.6 | –
Cc1ccccc1-c1cccc2c1CC(CN)O2 (racemic) [Example 4, (±)-1-[4-(2-methylphenyl)-2,3-dihydro-1-benzofuran-2-yl]methanamine] | 100 | 562 | 26 | –
NCC1Cc2cc(F)cc(-c3ccc(F)cc3)c2O1 (racemic) [Example 199, (±)-{[5-fluoro-7-(4-fluorophenyl)-2,3-dihydro-1-benzofuran-2-yl]methyl}amine] | 80 | 416 | 19 | –
NCC1Cc2cc(Cl)cc(-c3cccc(Cl)c3Cl)c2O1 (racemic) [Example 247, (±)-{[5-chloro-7-(2,3-dichlorophenyl)-2,3-dihydro-1-benzofuran-2-yl]methyl}amine] | 90 | 164 | 15 | –
NCC1Cc2cccc(C3CCCC3)c2O1 (single isomer, unassigned; (+)) [Example 10, (+)-(7-cyclopentyl-2,3-dihydro-1-benzofuran-2-yl)methylamine] | – | 179 | 42 | 60
CNCC1Cc2cc(Cl)cc(-c3cc(Cl)ccc3Cl)c2O1 (single isomer, unassigned; (+)) [Example 562, (+)-{[5-chloro-7-(2,5-dichlorophenyl)-2,3-dihydro-1-benzofuran-2-yl]methyl}methylamine] | 90 | 2 | 0.48 | –
NCC1Cc2cc(Cl)cc(-c3ccoc3)c2O1 (racemic) [Example 243, (±)-{[5-chloro-7-(3-furyl)-2,3-dihydro-1-benzofuran-2-yl]methyl}amine] | 90 | 50 | 0.25 | –
Cc1cc2c(c(-c3ccc(Cl)cc3Cl)c1)OC(CN)C2 (racemic) [Example 297, (±)-{[7-(2,4-dichlorophenyl)-5-methyl-2,3-dihydro-1-benzofuran-2-yl]methyl}amine] | 100 | 0.73 | 0.56 | –
NCC1Cc2cccc(-c3ccc(C(F)(F)F)cc3)c2O1 (single isomer, unassigned; (+)) [Example 137, (+)-1-{7-[4-(trifluoromethyl)phenyl]-2,3-dihydro-1-benzofuran-2-yl}methanamine] | – | 473 | 1.2 | 90
